Measured values as given in patent US12319664B2, “Herbicidally active 3-phenylisoxazoline-5-carboxamides of cyclopentenylcarboxylic acid derivatives” (Bayer Aktiengesellschaft, priority 2018, dated 2025).

Experiments:
AMARE = experiment: Post-emergence herbicidal action against AMARE; assay type: in vivo, Amaranthus retroflexus; settings: application rate 80 g/ha, rated visually about 3 weeks after treatment
Outline: (§1)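 Greenhouse post-emergence test: compound sprayed onto green plant parts at one-leaf stage as WP or EC preparation with 0.5% additive, water rate 600 l/ha. Percent activity scored by eye after roughly 3 weeks, where 0% matches controls and 100% means death.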

VERPE = experiment: Post-emergence herbicidal action against VERPE; assay type: in vivo, Veronica persica; settings: application rate 80 g/ha
Outline: as §1

LOLRI = experiment: Post-emergence herbicidal action against LOLRI; assay type: in vivo, Lolium rigidum; settings: application rate 80 g/ha, rated visually after about 3 weeks
Outline: as §1

AVEFA = experiment: Post-emergence herbicidal action against AVEFA; assay type: in vivo, Avena fatua; settings: application rate 80 g/ha, rated visually after about 3 weeks
Outline: as §1

MATIN = experiment: Post-emergence herbicidal action against MATIN; assay type: in vivo, Matricaria inodora; settings: application rate 80 g/ha, rated visually about 3 weeks after treatment
Protocol: [table] 2. Post-emergence herbicidal action against harmful plants and crop plant compatibility Seeds of monocotyledonous and dicotyledonous weeds and crop plants are placed in sandy loam in plastic or wood-fibre pots, covered with soil and cultivated in a greenhouse under controlled growth conditions. 2 to 3 weeks after sowing, the test plants are treated at the one-leaf stage. The compounds of the invention, formulated in the form of wettable powders (WP) or as emulsion concentrates (EC), are then sprayed onto the green parts of the plants as aqueous suspension or emulsion with addition of 0.5% additive at a water application rate of 600 l/ha (converted). After the test plants have been kept in the greenhouse under optimum growth conditions for about 3 weeks, the activity of the preparations is rated visually in comparison to untreated controls. For example, 100% activity=the plants have died, 0% activity=like control plants.

VIOTR = experiment: Post-emergence herbicidal action against VIOTR; assay type: in vivo, Viola tricolor; settings: application rate 80 g/ha, rated visually about 3 weeks after treatment
Outline: as §1

HORMU = experiment: Post-emergence herbicidal action against HORMU; assay type: in vivo, Hordeum murinum; settings: application rate 80 g/ha
Outline: as §1

SETVI = experiment: Post-emergence herbicidal action against SETVI; assay type: in vivo, Setaria viridis; settings: application rate 80 g/ha, rated visually after about 3 weeks
Outline: as §1

POLCO = experiment: Post-emergence herbicidal action against POLCO; assay type: in vivo, Polygonum convolvulus; settings: application rate 80 g/ha, rated visually about 3 weeks after treatment
Outline: as §1

ALOMY = experiment: Post-emergence herbicidal action against ALOMY; assay type: in vivo, Alopecurus myosuroides; settings: application rate 80 g/ha, rated visually after about 3 weeks
Outline: as §1

PHBPU = experiment: Post-emergence herbicidal action against PHBPU; assay type: in vivo, Pharbitis purpurea; settings: application rate 80 g/ha, rated visually about 3 weeks after treatment
Outline: as §1

STEME = experiment: Post-emergence herbicidal action against STEME; assay type: in vivo, Stellaria media; settings: application rate 80 g/ha, rated visually about 3 weeks after treatment
Outline: as §1

ABUTH = experiment: Post-emergence herbicidal action against ABUTH; assay type: in vivo, Abutilon theophrasti; settings: application rate 80 g/ha, rated visually about 3 weeks after treatment
Outline: as §1

ECHCG = experiment: Post-emergence herbicidal action against ECHCG; assay type: in vivo, Echinochloa crus-galli; settings: application rate 80 g/ha, rated visually after about 3 weeks
Outline: as §1

Row | Compound | Herbicidal action against [%] AMARE (AMARE) | Herbicidal action against [%] VERPE (VERPE) | Herbicidal action against [%] LOLRI (LOLRI) | Herbicidal action against [%] AVEFA (AVEFA) | Herbicidal action against [%] MATIN (MATIN) | Herbicidal action against [%] VIOTR (VIOTR) | Herbicidal action against [%] HORMU (HORMU) | Herbicidal action against [%] SETVI (SETVI) | Herbicidal action against [%] POLCO (POLCO) | Herbicidal action against [%] ALOMY (ALOMY) | Herbicidal action against [%] PHBPU (PHBPU) | Herbicidal action against [%] STEME (STEME) | Herbicidal action against [%] ABUTH (ABUTH) | Herbicidal action against [%] ECHCG (ECHCG)
1 | Cc1cc(F)cc(C2=NOC(C(=O)NC3C=CC(C(=O)OCC(F)(F)F)C3)(C(F)(F)F)C2)c1 (mixture of isomers) [Example I-032] | 90% | 80% | 90% | 100% | 80% | 80% | 80% | 90% | 100% | 90% | – | – | – | –
2 | C=CC1(C(=O)NC2C=CC(C(=O)OCc3ccccc3)C2)CC(c2cc(F)cc(F)c2)=NO1 (mixture of isomers) [Example I-033] | 90% | 80% | 90% | 90% | 90% | – | 80% | 90% | 100% | 90% | 80% | 80% | 80% | 90%
3 | CCOC(=O)C1C=CC(NC(=O)C2(C(F)(F)F)CC(c3cc(C)cc(C(F)(F)F)c3)=NO2)C1 (mixture of isomers) [Example I-036] | 80% | 80% | 90% | 80% | 80% | 90% | 80% | – | 90% | 90% | – | – | 80% | –
4 | COC(=O)C1C=CC(NC(=O)C2(C(F)(F)F)CC(c3cc(Cl)cc(Cl)c3)=NO2)C1 (mixture of isomers) [Example I-039] | 80% | 80% | 100% | 90% | 80% | – | 80% | 80% | – | 100% | 80% | 90% | 80% | 90%
5 | COC(=O)C1C=CC(NC(=O)C2(C(F)(F)F)CC(c3cc(C)cc(C(F)(F)F)c3)=NO2)C1 (mixture of isomers) [Example I-048] | – | 80% | 80% | 90% | 80% | – | 90% | – | – | 100% | 80% | 90% | 80% | 80%
6 | COC(=O)C1C=CC(NC(=O)C2(C(F)(F)F)CC(c3cc(C)cc(C)c3)=NO2)C1 (mixture of isomers) [Example I-055] | 80% | 80% | 90% | 80% | 80% | 90% | 90% | 90% | 90% | 90% | – | 90% | 80% | 90%
7 | CCOC(=O)C1C=CC(NC(=O)C2(C)CC(c3cc(F)cc(F)c3)=NO2)C1 (mixture of isomers) [Example I-059] | 80% | 80% | 100% | 100% | 90% | – | 90% | 90% | 80% | 90% | 80% | 90% | – | 100%
8 | CCOC(=O)C1C=CC(NC(=O)C2(C(F)(F)F)CC(c3cc(F)cc(C#N)c3)=NO2)C1 (mixture of isomers) [Example I-071] | 80% | 80% | 90% | 100% | 80% | 80% | 90% | 90% | 90% | 90% | – | 90% | 80% | 90%
9 | C=CC1(C(=O)NC2C=CC(C(=O)NS(=O)(=O)CCC)C2)CC(c2cc(F)cc(F)c2)=NO1 (mixture of isomers) [II-14] | 90% | 90% | 100% | 100% | 90% | 90% | 90% | 90% | 90% | 100% | – | – | – | 100%
10 | CC1(C(=O)N[C@H]2C=C[C@@H](C(=O)OCc3ccccc3)C2)CC(c2cc(F)cc(F)c2)=NO1 (stereo partly drawn) [Example I-008] | 90% | 90% | 90% | 90% | 90% | – | 90% | 90% | 90% | 100% | 90% | 90% | 90% | 90%
11 | CC1(C(=O)N[C@H]2C=C[C@@H](C(=O)OCCCl)C2)CC(c2cc(F)cc(F)c2)=NO1 (stereo partly drawn) [Example I-009] | – | 90% | 90% | 90% | 90% | – | 90% | 90% | 90% | 90% | 90% | 90% | 90% | 90%
12 | CCOC(=O)[C@@H]1C=C[C@H](NC(=O)C2(C(F)(F)F)CC(c3cc(C)cc(F)c3)=NO2)C1 (stereo partly drawn) [Example I-022] | 100% | 80% | 100% | 100% | 80% | 80% | 80% | 100% | 100% | 100% | – | – | 90% | 80%
13 | COC(=O)[C@@H]1C=C[C@H](NC(=O)C2(C(F)(F)F)CC(c3cc(C)cc(F)c3)=NO2)C1 (stereo partly drawn) [Example I-024] | 90% | 80% | 90% | 100% | 80% | 80% | 80% | 80% | 90% | 90% | – | – | 80% | 90%
14 | COC(=O)[C@@H]1C=C[C@H](NC(=O)C2(C(F)(F)F)CC(c3cc(C)cc(Cl)c3)=NO2)C1 (stereo partly drawn) [Example I-027] | 80% | 80% | 90% | 90% | 90% | 80% | 80% | 90% | – | 90% | – | 80% | 80% | 80%
